Measurements: US20090170871A1, “IL-8 Receptor Antagonists” (SMITHKLINE BEECHAM CORPORATION, priority 2006, published 2009)

Test system: whole blood neutrophil CD11b expression (CXCL2-stimulated)
Experiment: Neutrophil CD11b Stimulation Following Oral Dosing to Rats
Type: in vivo, Lewis rats
Method: Rat whole blood, 3 ml, was drawn by cardiac puncture in a syringe containing 100 μl of 0.25 M EDTA (GIBCO, Grand Island, N.Y.). Rat CXCL2 (PeproTech, Rocky Hill, N.J.) stock was made by reconstitution in Kreb's/0.1% BSA (KBSA) at 10 μM. The stock was diluted to “11×” the maximum concentration used in DPBS (GIBCO) and serially diluted in KBSA/DPBS vehicle. […] The tubes were incubated for 30 minutes in a 37° C. bath, with gentle hand agitation every 10 minutes. The samples were then placed on ice for 10 minutes followed by addition of 10 μl of anti-rat-CD11b-FITC or FITC-labeled mouse IgG2a isotype control (both Antigenix America, Huntington Station, N.Y.) and incubated for 30 minutes on ice. FACS Lysing Solution (Becton Dickinson, San Jose, Calif.), 1 ml of 1×, was added with immediate vigorous vortexing, followed by additional vortex after the solution was added to the last sample. Samples were incubated for 10 minutes at room temperature and the leukocytes were pelleted at ˜300×g and washed with DPBS. Cells were resuspended in 650 μl of 1% paraformaldahyde. […] FL1 (green FITC fluorescence, directly relating to CD11b content) of this population was then measured as mean channel fluorescence by analysis with CellQuest software.

EC50 of the CXCL2 concentration response curve (CD11b expression) in treated rats (oral 10 mg/kg, Lewis rats, vehicle-treated rats 4.7 nM (1.9-7.4; 95% C.I.), treated 95% C.I. 10.0-14.7, p<0.001, n=6 per group): 12.3 nM
Structure (SMILES): Cc1ccc(S(=O)(=O)O)cc1.O=C(Nc1ccc(Cl)c(S(=O)(=O)N2CCNCC2)c1O)Nc1cccc(F)c1Cl [present compound, N-[4-chloro-2-hydroxy-3-(piperazine-1-sulfonyl)phenyl]-N′-(2-chloro-3-fluorophenyl)urea p-toluenesulfonate]
inhibition of whole blood neutrophil CD11b expression (oral dosing to Lewis rats at 10 mg/kg, blood drawn one hour later): active
